Measurements taken from patent publication US12570975B2, “Composition for diagnosis or treatment of a condition associated with increased activity of EIF4E comprising an EIF4E inhibitor” (SoVarGen Co., Ltd., priority 2019, dated 2026).

Legend:
eIF4E mRNA [1] = assay: ASO screening by real-time PCR (eIF4E mRNA, HEK293T); format: cell-based, human; conditions: relative to ASO #75
Method: In an alternative approach for screening the designed ASO candidates, the human cell line HEK293T cells (human) were cultured on 96-well culture plates for 24 hours and then transfected with ASO candidates with the aid of iN-fect™ transfection reagent (INTRON, 15081). Twenty four hours after transfection, the cells were harvested and subjected to lysis and RNA extraction using SuperPrep™ II Cell Lysis & RT Kit reagent (Toyobo, SCQ-401). From the RNA thus obtained, cDNA was synthesized by reverse transcription PCR. Real-time PCR was performed in CXF384 Touch™ Real-Time System (Bio-Rad) with SYBR® green real-time PCR master mix (Toyobo, QPK-201). Forward and reverse PCR primer sequences for eIF4E and GAPDH are as follows:
The real-time PCR conditions in the CXF384_Touch™ Real-Time System were as follows: 95° C. for 1 min, then 95° C. for 15 sec, 59.5° C. for 20 sec, and 72° C. for 30 sec for 39 cycles. Each sample was analyzed in triplicates. […] FIGS. 16b and 16c are graphs in which relative eIF4E expression levels are quantitatively expressed as ratios compared to the GAPDH expression level in HEK293T cells treated with ASO candidates.

C57BL/6J mice [2] = conditions: male or female mice injected with ASO
eIF4E = assay: Immunofluorescence of eIF4E in brain cells after ASO injection; format: in vivo, mouse; conditions: week 4-5 after ICV injection, FMCD models
Method: (§1) Week 4-5 after intracerebroventricular injection of ASO into the animal models established using pCIG-mTOR mutant-IRES-EGFP vector of Example 1, the brain was removed, fixed, sectioned, and immunostained.
(§2) Immunostaining with antibodies against ADK, CREB1, IRSp53, and eIF4E and Imaging with fluorescence were conducted in the same manner as in Example 2.

male mice = assay: Repeated dose toxicity assay by subcutaneous injection; format: in vivo, mouse; conditions: subcutaneous 100 mg/kg, seven times within a month
Method: ASO #16, #21, #27, #35, #75, #77, and #89 selected in Example 4 were each assayed for repeated dose toxicity by subcutaneous injection.
Repeated dose toxicity assay of the […] was conducted by Biotoxtech Co., Ltd. In repeated dose toxicity assay, each ASO sequence was subcutaneously injected at a dose of 100 mg/kg to groups of four male mice seven times in total within a month (days 1, 3, 5, 7, 14, 21, and 28). Two days after the last injection, histopathologic observations were made.

C57BL/6J mice [3] = conditions: mouse, in vivo
eIF4E mRNA [4] = assay: Inhibitory concentration (IC50) against eIF4E mRNA, real-time PCR, HEK293T; format: cell-based, human
Method: In order to calculate IC50 values for ASO sequences, ASO candidates are transfected at different concentrations (20 nM, 80 nM, 320 nM) into the human cell line HEK293T (human) with the aid of iN-fect™ in vitro transfection reagent (15081, iNtRON, Republic of Korea). Twenty four hours after ASO transfection, the cells were harvested and analyzed for eIF4E mRNA expression reduction by real-time PCR. Relative eIF4E mRNA expression was normalized to the expression level using GAPDH as an internal control and was evaluated using the 2^−ΔΔCq method.
For comparison of inhibitory concentrations (IC50) among ASO candidates, a dose-response curve was derived by normalized nonlinear regression using Prism8 program (GraphPad Software, USA) (FIG. 16e).

[5] = system: mutant-expressing cells in the brain tissue; conditions: mouse, in vivo
C57BL/6J mice [6] = conditions: mouse, in vivo; remark: listed apart in the source
[7] = system: FMCD and epilepsy animal models (mTOR-p.C1483Y, mTOR-p.L2427P); assay: Light & dark box test, FMCD epilepsy models; format: in vivo, mouse; conditions: ASO-eIF4E models compared to ASO-control models
Method: Behaviors were recorded and analyzed using EthoVision XT (Noldus).
(§3) Experiments were performed on the FMCD and epilepsy animal models (mTOR-p.C1483Y, mTOR-p.L2427P) of Example 7-1 and the control normal animal models (mTOR-WT). The same sheIF4E as that described in Example 2 was used. Week 2 after sheIF4E injection, the handling was performed in the animals. Week 3 after sheIF4E injection, the animals were subjected to the behavioral tests.
(§4) The epilepsy animal models were subjected to the substantially same behavioral abnormality assay as in Example 6. The results are depicted in FIGS. 28 and 29.
(§5) Briefly, ASO #77 was administered by ICV injection to the FMCD and epilepsy animal models were generated with the pCIG-mTOR mutant-IRES-EGFP of Example 1. ASO #77 was evaluated for therapeutic potential for neuropsychiatric disorder accompanying the FMCD epilepsy animal models in the substantially same manner as in Example 6.

C57BL/6J mice [8] = conditions: mouse, in vivo; remark: listed apart in the source
Method: In this regard, ASO was administered by ICV injection. The ASO used in this experiment was ASO #77.
The 3-Chamber test measures social interaction and preference for social novelty. This apparatus consisted of three chambers with dimensions of 12×20×26 cm for the center chamber and dimensions of 14×20×26 cm for the opposite side chambers. Each of the opposite side chambers included a plastic cage (11 cm in diameter, 2.15 cm in height) for an object or stranger mouse in a corner. This experiment consisted of three sessions of habituation (10 min), exploring object/mouse (10 min), and exploring familiar/new mouse (10 min). In the second session, a WT stranger mouse was randomly placed in a plastic cage while the opposite plastic cage was empty. The mouse was allowed to freely explore the whole apparatus. The time spent in each chamber was measured and then used for the subsequent social interaction test. In the last session, a new WT stranger was placed in the empty plastic cage.

[9] = system: FMCD and epilepsy animal models (mTOR-p.C1483Y, mTOR-p.L2427P); assay: Marble burying test, FMCD epilepsy models; format: in vivo, mouse; conditions: ASO-eIF4E models compared to ASO-control models
Method: A mouse was placed in the cage.
as §3, §4, §5

ADK, IRSp53, and CREB1 = assay: Immunofluorescence of ADK, IRSp53 and CREB1 after ASO injection; format: in vivo, mouse; conditions: week 4-5 after ICV injection
Method: as §1, §2

C57BL/6J mice [10] = conditions: mouse, in vivo; remark: listed apart in the source

## ASO #77: eIF4E-targeting antisense oligonucleotide of SEQ ID NO: 77, 2′-MOE gapmer, all phosphorothioate linkages (antisense GATCCTTCACCAATGTTACA; all phosphorothioate, sugars by position and methylation of C not given here; 2'-MOE gapmer)
eIF4E mRNA [1]
  Expression level of eIF4E(%) compared to ASO#75: 121%
C57BL/6J mice [2]
  % sucrose preference: not changed
eIF4E
  eIF4E expression in brain cells (immunofluorescence): reduction of eIF4E expression
Male mice
  dead or moribund animals: No dead or moribund animals
C57BL/6J mice [3]
  dyskinesia (behavior test): no dyskinesia
  time spent in center (index of anxiety): not changed
eIF4E mRNA [4]; HEK293T, 20, 80, 320 nM, 24 h after transfection, read-out: IC50 against eIF4E mRNA expression
  IC50: 53.8 nM
eIF4E mRNA [4]; HEK293T, at all of the doses (20 nM, 80 nM, 320 nM)
  eIF4E mRNA expression compared to the mismatch ASO: inhibited
[5]
  delivery into mutant-expressing cells in the brain tissue: effectively delivered
C57BL/6J mice [6]
  time spent in center (residence time within the light box): not changed
[7]
  time spent in center (residence time within the light box): increased
C57BL/6J mice [8]
  time spent in sniffing zone (index of sociality): not changed
[9]
  number of buried marbles (repetitive behavior): increased
ADK, IRSp53, and CREB1
  expression of ADK, IRSp53, and CREB1 in the mutation cells: rescue of the expression of ADK, IRSp53, and CREB1 to a normal level
C57BL/6J mice [10]
  number of buried marbles (index of repetitive behavior): not changed
